According to PubChem BioAssay (NCI):
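Assay format: 96-well plates, 48-hour exposure. GI50 = concentration required for 50% inhibition of growth. TGI is the concentration that stops growth completely.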

Columns and labels:
Assay in all cases: DTP human tumour cell line panel, 48 h
M19-MEL melanoma = system: M19-MEL melanoma
KM20L2 colon = system: KM20L2 colon
SNB-78 CNS = system: SNB-78 CNS
XF 498 CNS = system: XF 498 CNS
HOP-18 NSCLC = system: HOP-18 NSCLC
DMS 114 small cell lung = system: DMS 114 small cell lung
DMS 273 small cell lung = system: DMS 273 small cell lung
DU-145 prostate = system: DU-145 prostate
MCF7 breast = system: MCF7 breast
HS 578T breast = system: HS 578T breast
NCI/ADR-RES ovarian = system: NCI/ADR-RES ovarian
T-47D breast = system: T-47D breast
BT-549 breast = system: BT-549 breast

| Compound | TGI (M19-MEL melanoma) | TGI (KM20L2 colon) | TGI (SNB-78 CNS) | TGI (XF 498 CNS) | TGI (HOP-18 NSCLC) | TGI (DMS 114 small cell lung) | TGI (DMS 273 small cell lung) | TGI (DU-145 prostate) | TGI (MCF7 breast) | TGI (HS 578T breast) | TGI (NCI/ADR-RES ovarian) | TGI (T-47D breast) | TGI (BT-549 breast) | GI50 (DU-145 prostate) | GI50 (MCF7 breast) | GI50 (HS 578T breast) | GI50 (NCI/ADR-RES ovarian) | GI50 (T-47D breast) | GI50 (BT-549 breast) |
| --- | --- | --- | --- | --- | --- | --- | --- | --- | --- | --- | --- | --- | --- | --- | --- | --- | --- | --- | --- |
| CC1=C(C(=O)Nc2ccccc2C)C(c2ccccc2C)C(C(=O)Nc2ccccc2C)=C(C)N1 | 66.7 µM | 38.9 µM | > 100 µM | 39.2 µM | 37 µM | > 100 µM |  |  |  |  |  |  |  |  |  |  |  |  |  |
| COC(=O)C1=C(c2ccc(Cl)cc2)C(O)N=C(NN)N1 (stereo unspecified) | > 100 µM |  | > 100 µM | > 100 µM | > 100 µM | > 100 µM |  |  |  |  |  |  |  |  |  |  |  |  |  |
| O=C1NN=C(c2ccc([N+](=O)[O-])cc2)C1n1nc(-c2ccccc2)c2ccccc2c1=O (stereo unspecified) | > 100 µM | > 100 µM | > 100 µM | > 100 µM | > 100 µM |  | > 68.3 µM |  |  |  |  |  |  |  |  |  |  |  |  |
| CCSC(=O)C1(C)OC2CCCCC2C1=O (stereo unspecified) | > 100 µM | > 100 µM | > 100 µM |  | > 100 µM | > 100 µM | > 100 µM |  |  |  |  |  |  |  |  |  |  |  |  |
| COc1cc2c3cc1Oc1c(OC)c(OC)cc4c1C(Cc1ccc(cc1)Oc1cc(ccc1O)CC3N(C)CC2)N(C)CC4 (stereo unspecified) | 24.2 µM | 24.7 µM | 64.6 µM |  | > 100 µM | 24.8 µM |  | 24.8 µM | 20.8 µM | 31.4 µM | 60.5 µM | 26.8 µM | 22.8 µM |  |  |  |  |  |  |
| COc1cc(/C=C\c2ccc(Cl)cc2)cc(OC)c1OC | > 100 µM | 0.372 µM |  | 19.1 µM | > 100 µM | > 91.8 µM | 19.4 µM |  |  |  |  |  |  |  |  |  |  |  |  |
| N#CC(C(=O)CCC(=O)Nc1ccc(Cl)c(Cl)c1)c1ccc(Cl)cc1 (stereo unspecified) | > 100 µM | > 100 µM | > 100 µM |  | > 100 µM | > 100 µM | > 100 µM |  |  |  |  |  |  |  |  |  |  |  |  |
| O=C1NC(SCc2ccc(F)cc2)=N/C1=C/c1cccc(OCc2ccc(Cl)cc2)c1 |  |  |  |  |  |  |  | > 100 µM | > 100 µM | > 100 µM | > 100 µM | > 100 µM | > 100 µM | > 100 µM | 19.7 µM | 9.36 µM | 22.2 µM | 13.9 µM | 23.4 µM |
| O=C(CN1C(=O)S/C(=C\C(Cl)=C\c2ccccc2)C1=O)NCCCn1ccnc1 |  |  |  |  |  |  |  | 5.64 µM | 6.11 µM | 7.35 µM | > 100 µM | 17.2 µM | 4.83 µM | 2.22 µM | 1.36 µM | 2.4 µM | 4.13 µM | 2.8 µM | 2.12 µM |
| O=c1[nH]cnc2c1ncn2CCCCO | > 100 µM | > 100 µM | > 100 µM |  | > 100 µM | > 100 µM |  |  |  |  |  |  |  |  |  |  |  |  |  |
| COC(=O)C1C(/C=C/c2ccoc2)ON2CCC[C@@H]12 (stereo partly specified) | > 100 µM | > 100 µM | > 100 µM |  | 98 µM | > 100 µM | > 100 µM |  |  |  |  |  |  |  |  |  |  |  |  |
| COC1OC(C(C)O)C2OC(C)(C)OC12 (stereo unspecified) |  |  |  |  |  |  |  | > 100 µM | > 100 µM | > 100 µM | > 100 µM | > 100 µM | > 100 µM |  |  |  |  |  |  |
| Clc1ccc(/C=C/c2nc(Cl)c(-c3ccc(Cl)cc3)c(Cl)n2)cc1 |  |  |  |  |  |  |  | > 100 µM | > 100 µM | > 100 µM | > 100 µM | > 100 µM | > 100 µM |  |  |  |  |  |  |
| O=C(Cn1c2ccccc2c2ccncc21)N/N=C\c1ccc2ccccc2c1 |  |  |  |  |  |  |  | > 100 µM | > 100 µM | 79.2 µM | > 100 µM | > 100 µM | 36.5 µM | 23.9 µM | 14.3 µM | 23.5 µM | 15.8 µM | 25.2 µM | 15.6 µM |
| COc1cc(-c2oc3c(OC)c(O)cc(O)c3c(=O)c2OC)ccc1O |  |  |  |  |  |  |  | > 81.5 µM | > 75.6 µM | 6.83 µM | > 83.5 µM | 18.2 µM | 59.2 µM |  |  |  |  |  |  |
| OC1c2ccccc2C2C(O)c3ccccc3C12 (stereo unspecified) | > 100 µM | > 100 µM |  |  | > 100 µM | > 100 µM | > 100 µM |  |  |  |  |  |  |  |  |  |  |  |  |
| CCOC(=O)C1Oc2ccc([N+](=O)[O-])cc2C1(C)O (stereo unspecified) | > 100 µM |  | > 100 µM | > 100 µM |  | > 100 µM | > 100 µM |  |  |  |  |  |  |  |  |  |  |  |  |
| COC(=O)c1nc(N)nc(C(=O)OC)c1C(=O)c1ccccc1 | > 100 µM | > 100 µM |  | > 100 µM | > 100 µM | > 100 µM |  |  |  |  |  |  |  |  |  |  |  |  |  |
| Cn1ncnc1C1c2n[nH]c(=O)c3cc(F)cc(c23)NC1c1ccc(F)cc1 (stereo unspecified) |  |  |  |  |  |  |  | > 100 µM | > 100 µM | > 100 µM | > 100 µM | > 100 µM | > 100 µM | 4.14 µM | 1.57 µM | > 100 µM | > 100 µM | > 100 µM | > 69.9 µM |
| COc1ccc(/C(C#N)=C(/N)SCc2ccccc2Cl)cc1 | 40.6 µM | 34.3 µM | 64.2 µM | 30.3 µM | 38.2 µM | 37.1 µM |  |  |  |  |  |  |  |  |  |  |  |  |  |
| CCOC(=O)c1cn(CC)c2cc3c(cc2c1=O)SCS3 | > 100 µM | > 100 µM |  |  | > 100 µM | > 100 µM | > 100 µM |  |  |  |  |  |  |  |  |  |  |  |  |
| CN(C)C(=S)SCC(N)=O |  |  |  |  |  |  |  | > 100 µM | > 100 µM | > 100 µM | > 100 µM | > 100 µM | > 100 µM |  |  |  |  |  |  |
| COc1ccc(CN=C(N)N=C(N)N)cc1OC |  |  |  |  |  |  |  | > 1000 µM | > 1000 µM | > 1000 µM | > 1000 µM | > 1000 µM | > 1000 µM | > 1000 µM | 855 µM | > 1000 µM | > 1000 µM | 907 µM | 260 µM |
| CCCCCCCCCCCCCCCCCc1nnc(N)o1 | > 100 µM | > 100 µM | > 100 µM | > 100 µM |  |  | > 100 µM |  |  |  |  |  |  |  |  |  |  |  |  |
| NS(=O)(=O)c1ccc(N2N=C(c3cccs3)CC2c2ccccc2O)cc1 (stereo unspecified) |  |  |  |  |  |  |  | 2.33 µM | 4.45 µM | 2.7 µM | 19 µM | 18.8 µM | 9.15 µM | 0.903 µM | 1.01 µM | 0.845 µM | 4.84 µM | 2.24 µM | 2.05 µM |
| [O-][n+]1c2cc(CN3CCOCC3)c(CN3CCOCC3)cc2[n+]([O-])c2c(O)cccc21 | 8.83 µM | 15.4 µM | 21.9 µM | 7.42 µM | 18.6 µM |  | 15 µM |  |  |  |  |  |  |  |  |  |  |  |  |
| C=C(C)C(=O)O[C@H]1CC2=CC(CC(C)=C[C@H]3OC(=O)C(=C)C13)OC2=O (stereo partly specified) |  |  |  |  |  |  |  | 30.8 µM | 49.1 µM | > 100 µM | > 100 µM | 36.9 µM | 38.9 µM |  |  |  |  |  |  |
